The values below come from patent US9546355B2, “Conditional replicating cytomegalovirus as a vaccine for CMV” (Merck Sharp & Dohme Corp., priority 2011, dated 2017).

Structures are written as SMILES.

The subject of one experiment is ARPE-19 cells. The experiment is described as follows: Shield-1 concentration dependent progeny virus production (TCID50 assay). The format is cell-based. Conditions: rdCMV in ARPE-19 cells and other human primary cells. The protocol: ARPE-19 cells were infected with the rdCMV viruses at a multiplicity of 0.01 PFU/cell for 1 h, washed twice with fresh medium, and incubated in the growth medium containing 0, 0.05, 0.1 0.5 or 2 μM of Shield-1. Seven days post infection, the cell free virus was collected, and virus titers were determined by TCID50 assay on ARPE-19 cells in the presence of 2 μM of Shield 1.
Varying concentrations of Shld-1 were used in additional experiments to further assess viral replication in the presence or absence of Shld-1. ARPE-19 cells were infected by the gH expressing CMV that also contained a FKBP derivative fused to an essential protein at MOI of […]. After infection for 1 hour, the cells were washed twice with fresh medium to remove the Shld-1 from the inoculums. The inoculums were then added to ARPE-19 cells cultured in medium containing 0.05, 0.1, 0.5 or 2 μM of Shield-1. Seven days post infection, the cell-free progeny virus in the supernatant was collected and titrated on ARPE-19 cells supplemented with […] of Shield-1. Virus titers were determined by a 50% Tissue Culture Infective Dose (TCID50) assay. Briefly, this dilution assay quantifies the amount of virus required to kill 50% of infected hosts. […] After incubation, the percentage of cell death (i.e. infected cells) was manually observed and recorded for each virus dilution. […]

A further experiment concerns FKBP. Conditions: tighter binding; Clackson et al., 1998; cited from earlier work.

As for `CC[C@H](C(=O)N1CCCC[C@H]1C(=O)O[C@H](CCc1ccc(OC)c(OC)c1)c1cccc(OCCN2CCOCC2)c1)c1cc(OC)c(OC)c(OC)c1` [Shield-1], in the experiment on ARPE-19 cells, the “Molar concentration of Shield-1 in the culture medium required to sustain viral replication” value is on record as “greater than 0.1 μM”. Also, in the experiment with FKBP, the “Binding to the F36V derivative compared to wild-type FKBP” value is recorded as “about 1,000 fold”.
